Laboratory results reported in patent US12180139B2, “Method for preparing aminoalkanoic acid derivative containing biphenyl group” (AMTIXBIO CO., LTD., priority 2019, dated 2024).
≈ marks a conversion by molar mass, not a printed value.

Experiments:
[1] = test system: MRSA; test: Antibacterial MIC test (CLSI); assay type: cell-based, Methicillin-resistant Staphylococcus aureus; details: for MIC MRSA: MHB liquid medium, 37° C., 24 hours
Method: (§1) The MIC test was conducted in accordance CLSI guidelines. […] As a positive control, Nofloxacin and Vancomycin were used.

[2] = test system: S. aureus enterica (−); test: Antibacterial MIC test (CLSI); assay type: cell-based; details: for MIC S. aureus enterica (−): MHB liquid medium, 37° C., 24 hours
Method: as §1

[3] = test system: L. monocytogenes (+); test: Antibacterial MIC test (CLSI); assay type: cell-based; details: for MIC L. monocytogenes (+): MHB liquid medium, 37° C., 24 hours
Method: as §1

[4] = test system: P. acnes (+); test: Antibacterial MIC test (CLSI); assay type: cell-based; details: for MIC P. acnes (+): MHB liquid medium, 37° C., 24 hours
Method: as §1

[5] = test system: B. cereus (+); test: Antibacterial MIC test (CLSI); assay type: cell-based; details: for MIC B. cereus (+): MHB liquid medium, 37° C., 24 hours
Method: as §1

[6] = test system: M. luteus (+); test: Antibacterial MIC test (CLSI); assay type: cell-based; details: for MIC M. luteus (+): MHB liquid medium, 37° C., 24 hours
Method: as §1

[7] = test system: E. coli (−); test: Antibacterial MIC test (CLSI); assay type: cell-based; details: for MIC E. coli (−): MHB liquid medium, 37° C., 24 hours
Method: as §1

[8] = test system: B. subtilis (+); test: Antibacterial MIC test (CLSI); assay type: cell-based; details: for MIC B. subtilis (+): MHB liquid medium, 37° C., 24 hours
Method: as §1

[9] = test system: B. coagulans (+); test: Antibacterial MIC test (CLSI); assay type: cell-based; details: for MIC B. coagulans (+): MHB liquid medium, 37° C., 24 hours
Method: as §1

[10] = test system: S. epidermidis (+); details: MHB liquid medium, 37° C., 24 hours
Method: (§2) The antibacterial activities against Gram-positive bacteria, Gram-negative bacteria or multi-drug resistant bacteria were evaluated for the compounds of the present invention. The MIC test was conducted in accordance CLSI guidelines. E. coli(−), P. aeruginosa(−), and S. enterica(−) were used as Gram-negative bacteria, B. cereus(+), B. subtilis(+), B. coagulans(+), L. monocytogenes(+), M. luteus(+), P. acnes(+), S. epidermidis(+), and S. aureus(+) were used as Gram-positive bacteria. Methicillin-resistant Staphylococcus aureus (MRSA) was used as multi-drug resistant bacteria. The bacterial cells were incubated until the OD600 of the single colonies reached 0.1. […] Subsequently, bacterial cells were incubated at 37° C. for 24 hours, and then the MICs (μg/ ? ) were determined by visual reading and optical density detection at 600 nm (OD600). As a positive control, Nofloxacin and Vancomycin were used.

[11] = test system: S. aureus (+); details: MHB liquid medium, 37° C., 24 hours
Method: as §2

[12] = test system: C. albicans; details: RPMI1640 broth, 35° C., 48 hours, visual reading; expressed as a range value
Method: (§3) An in vitro antifungal susceptibility test was performed in accordance with the US Clinical and Laboratory Standards Institute (CLSI) guidelines to measure the degree of antifungal activity of the compounds synthesized in the Preparation Examples against opportunistic pathogenic fungi. […] The MIC value (μg/ ? ) is expressed as a range value. Specifically, Candida species and Cryptococcus neoformans were incubated in a Sabouraud dextrose agar (SDA) (Sigma-Aldrich) solid medium for 24 and 48 hours, respectively to obtain single colonies. The obtained single colonies were suspended in 0.85% physiological saline to prepare fungal cell suspension (1 to 5×10^6 cells/ ? ). Fungal cells 2000-fold diluted in RPMI1640 broth (Sigma-Aldrich) were seeded on 96-well plates (5×10^2 to 2.5×10^3 cells/ ? , 195 ? /well). Serial two-fold dilutions (128, 64, 32, 16, 8, 4, 2, 1, and 0.5 μg/ ? ) of compounds were prepared by diluting the compounds synthesized according to the above preparation examples. Then, 5 ? from each dilution was added to the well of the 96-well plate containing fungal cell suspension to give a final suspension of 200 ? per well. […] As a positive control, amphotericin B (AMB), which is highly toxic to the human body but is known as a representative antifungal agent, was used.

[13] = test system: A. fumigatus; details: visual reading; expressed as a range value
[14] = test system: C. glabrata; details: RPMI1640 broth, 35° C., 48 hours, visual reading; expressed as a range value
Method: as §3

[15] = test system: C. neoformans; details: RPMI1640 broth, 35° C., 72 hours, visual reading; expressed as a range value
Method: as §3

Row | Structure (SMILES) | MIC MRSA [1] | MIC S. aureus enterica (−) [2] | MIC L. monocytogenes (+) [3] | MIC P. acnes (+) [4] | MIC B. cereus (+) [5] | MIC M. luteus (+) [6] | MIC E. coli (−) [7] | MIC B. subtilis (+) [8] | MIC B. coagulans (+) [9] | MIC S. epidermidis (+) [10] | MIC S. aureus (+) [11] | MIC (μg/mL) C. albicans [12] | MIC (μg/mL) A. fumigatus [13] | MIC (μg/mL) C. glabrata [14] | MIC (μg/mL) C. neoformans [15] | other results
1 | CCC(N)C(=O)Nc1ccc(-c2ccc(Cl)c(Cl)c2)cc1.Cl (racemic) [Compound 29, (R)/(S)-2-amino-N-(3′,4′-dichloro-[1,1′-biphenyl]-4-yl)butanamide hydrochloride] | <4 µg/mL | 8 µg/mL | <4 µg/mL | <4 µg/mL | 8 µg/mL | <4 µg/mL | 8 µg/mL | <4 µg/mL | <4 µg/mL | <4 µg/mL | <4 µg/mL | 4~16 μg/mL | 4~16 μg/mL | 4~16 μg/mL | 2~8 μg/mL | –
2 | CCCC(N)C(=O)Nc1ccc(-c2ccc(Cl)c(Cl)c2)cc1.Cl (racemic) [Compound 30, (R)/(S)-2-amino-N-(3′,4′-dichloro-[1,1′-biphenyl]-4-yl)pentanamide hydrochloride] | 16 µg/mL | >32 µg/mL | 16 µg/mL | 16 µg/mL | 32 µg/mL | – | >32 µg/mL | 16 µg/mL | 8 µg/mL | 16 µg/mL | 16 µg/mL | 4~16 μg/mL | 4~16 μg/mL | 4~16 μg/mL | 2~8 μg/mL | –
3 | CCCCC(N)C(=O)Nc1ccc(-c2ccc(Cl)c(Cl)c2)cc1.Cl (racemic) [Compound 31, (R)/(S)-2-amino-N-(3′,4′-dichloro-[1,1′-biphenyl]-4-yl)hexanamide hydrochloride] | <4 µg/mL | 8 µg/mL | <4 µg/mL | <4 µg/mL | <4 µg/mL | <4 µg/mL | <4 µg/mL | <4 µg/mL | <4 µg/mL | <4 µg/mL | <4 µg/mL | 0.5~4 μg/mL | 0.5~4 μg/mL | 0.5~4 μg/mL | 0.5~4 μg/mL | –
4 | CCC(NC)C(=O)Nc1ccc(-c2ccc(Cl)c(Cl)c2)cc1.Cl (racemic) [Compound 33, (R)/(S)-N-(3′,4′-dichloro-[1,1′-biphenyl]-4-yl)-2-(methylamino)butanamide hydrochloride] | <4 µg/mL | 16 µg/mL | <4 µg/mL | <4 µg/mL | 16 µg/mL | <4 µg/mL | 8 µg/mL | 8 µg/mL | <4 µg/mL | <4 µg/mL | 8 µg/mL | 8~32 μg/mL | 8~32 μg/mL | 8~32 μg/mL | 4~16 μg/mL | –
5 | CCCC(NC)C(=O)Nc1ccc(-c2ccc(Cl)c(Cl)c2)cc1.Cl (racemic) [Compound 34, (R)/(S)-N-(3′,4′-dichloro-[1,1′-biphenyl]-4-yl)-2-(methylamino)pentanamide hydrochloride] | <4 µg/mL | 32 µg/mL | <4 µg/mL | <4 µg/mL | 8 µg/mL | <4 µg/mL | 8 µg/mL | <4 µg/mL | <4 µg/mL | <4 µg/mL | <4 µg/mL | 4~16 μg/mL | 8~32 μg/mL | 8~32 μg/mL | 2~8 μg/mL | –
6 | CCCCC(N)C(=O)NCCc1ccc(-c2ccc(Cl)c(Cl)c2)cc1.Cl (racemic) [Compound 75, (R)/(S)-2-amino-N-(2-(3′,4′-dichloro-[1,1′-biphenyl]-4-yl)ethyl)hexanamide hydrochloride] | 8 µg/mL | >32 µg/mL | 8 µg/mL | 8 µg/mL | 16 µg/mL | 8 µg/mL | 32 µg/mL | 8 µg/mL | – | 8 µg/mL | 8 µg/mL | 0.5~4 μg/mL | 0.5~4 μg/mL | 0.5~4 μg/mL | 0.5~4 μg/mL | –
7 | CCCC(NC)C(=O)NCCc1ccc(-c2ccc(OC(F)(F)F)cc2)cc1.Cl (racemic) [Compound 90, (R)/(S)-2-(methylamino)-N-(2-(4′-(trifluoromethoxy)-[1,1′-biphenyl]-4-yl)ethyl)pentanamide hydrochloride] | – | – | – | – | – | – | – | – | – | – | – | 4~16 μg/mL | 4~16 μg/mL | 4~16 μg/mL | 4~16 μg/mL | –
8 | CCCC(C(=O)NCCc1ccc(-c2ccc(Cl)c(Cl)c2)cc1)N(C)C (racemic) [Compound 92, (R)/(S)-N-(2-(3′,4′-dichloro-[1,1′-biphenyl]-4-yl)ethyl)-2-(dimethylamino)pentanamide] | – | – | – | – | – | – | – | – | – | – | – | 8~32 μg/mL | 8~32 μg/mL | 8~32 μg/mL | 4~16 μg/mL | –
9 | C[C@@H]1[C@H](O)[C@@H](C)/C=C/C=C/C=C/C=C/C=C/C=C/C=C/[C@H](O[C@@H]2O[C@H](C)[C@@H](O)[C@H](N)[C@@H]2O)C[C@@H]2O[C@](O)(C[C@@H](O)C[C@@H](O)[C@H](O)CC[C@@H](O)C[C@@H](O)CC(=O)O[C@H]1C)C[C@H](O)[C@H]2C(=O)O [ABM, amphotericin B, reference compound] | – | – | – | – | – | – | – | – | – | – | – | 0.25 µg/mL (≈ 0.271 µM) | 1 µg/mL (≈ 1.08 µM) | 0.5 µg/mL (≈ 0.541 µM) | 0.25 µg/mL (≈ 0.271 µM) | –
10 | CCn1cc(C(=O)O)c(=O)c2cc(F)c(N3CCNCC3)cc21 [Nofloxacin, reference compound] | 0.5 µg/mL (≈ 1.57 µM) | <0.125 µg/mL | <0.125 µg/mL | <0.125 µg/mL | 1 µg/mL (≈ 3.13 µM) | <0.125 µg/mL | <0.125 µg/mL | <0.125 µg/mL | <0.125 µg/mL | – | – | – | – | – | – | –
11 | CN[C@H](CC(C)C)C(=O)N[C@H]1C(=O)N[C@@H](CC(N)=O)C(=O)N[C@H]2C(=O)N[C@H]3C(=O)N[C@H](C(=O)N[C@H](C(=O)O)c4cc(O)cc(O)c4-c4cc3ccc4O)[C@H](O)c3ccc(c(Cl)c3)Oc3cc2cc(c3O[C@@H]2O[C@H](CO)[C@@H](O)[C@H](O)[C@H]2O[C@H]2C[C@](C)(N)[C@H](O)[C@H](C)O2)Oc2ccc(cc2Cl)[C@H]1O [Vancomycin, reference compound] | – | – | – | – | – | – | – | – | – | – | – | – | – | – | – | MIC ([1]; Staphylococcus aureus, MRSA, 24 h, read-out: MIC MRSA): 1 µg/mL (≈ 0.69 µM); MIC ([2]; Staphylococcus aureus, 24 h, read-out: MIC S. aureus enterica (−)): > 64 µg/mL; MIC ([3]; Listeria monocytogenes, 24 h, read-out: MIC L. monocytogenes (+)): 0.25 µg/mL (≈ 0.173 µM); MIC ([4]; Cutibacterium acnes, 24 h, read-out: MIC P. acnes (+)): < 0.125 µg/mL; MIC ([5]; Bacillus cereus, 24 h, read-out: MIC B. cereus (+)): 0.5 µg/mL (≈ 0.345 µM); MIC ([6]; Micrococcus luteus, 24 h, read-out: MIC M. luteus (+)): 0.25 µg/mL (≈ 0.173 µM); MIC ([7]; Escherichia coli, 24 h, read-out: MIC E. coli (−)): 64 µg/mL (≈ 44.2 µM); MIC ([8]; Bacillus subtilis, 24 h, read-out: MIC B. subtilis (+)): 0.25 µg/mL (≈ 0.173 µM); MIC ([9]; Heyndrickxia coagulans, 24 h, read-out: MIC B. coagulans (+)): 0.25 µg/mL (≈ 0.173 µM)
